Source: article PMC10824666 (Nature Cancer, 2023)

What was measured:
PKA alpha = molecular target: T1, PKA alpha (Homo sapiens, UniProt P17612); experiment: biochemical; set-up: Eurofins DiscoverX kinase panel, competitive binding assay at 1 uM, percent of DMSO control; details: read-out: Kinome Profiling performed by Eurofins DiscoverX / AM-5308, 1.0 µM / POC; competitive binding, percent of DMSO control
T1 construct: gene PRKACA
Summary of the method: (§1)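 Competitive binding assay across a 96-kinase panel with KIF18A compounds at 1 µM; values given as percentage of control (POC), single experiment.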

PKR = molecular target: T2, PKR (Homo sapiens, UniProt P19525); experiment: biochemical; set-up: Eurofins DiscoverX kinase panel, competitive binding assay at 1 uM, percent of DMSO control; details: read-out: Kinome Profiling performed by Eurofins DiscoverX / AM-5308, 1.0 µM / POC; competitive binding, percent of DMSO control
T2 construct: gene EIF2AK2
Summary of the method: as §1

T2 sequence (P19525 whole entry): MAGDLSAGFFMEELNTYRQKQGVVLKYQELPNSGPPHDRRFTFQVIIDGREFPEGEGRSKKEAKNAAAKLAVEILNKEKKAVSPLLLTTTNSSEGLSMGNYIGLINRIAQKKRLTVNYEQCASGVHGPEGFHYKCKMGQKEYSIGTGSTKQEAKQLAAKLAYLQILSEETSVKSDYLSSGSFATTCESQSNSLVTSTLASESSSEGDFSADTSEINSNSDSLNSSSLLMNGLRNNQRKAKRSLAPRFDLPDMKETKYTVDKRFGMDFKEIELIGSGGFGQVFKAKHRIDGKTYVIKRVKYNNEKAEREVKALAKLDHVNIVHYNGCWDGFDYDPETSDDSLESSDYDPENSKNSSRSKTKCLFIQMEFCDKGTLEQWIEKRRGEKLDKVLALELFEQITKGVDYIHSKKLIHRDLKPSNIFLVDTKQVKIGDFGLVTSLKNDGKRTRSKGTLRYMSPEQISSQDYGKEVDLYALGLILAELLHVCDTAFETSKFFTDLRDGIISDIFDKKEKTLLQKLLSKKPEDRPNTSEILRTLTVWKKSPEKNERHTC

In the case of C[C@@H]1CN(c2cccc(NC(=O)c3ccc(NS(=O)(=O)CCO)cc3N3CCC4(CC3)CC4)n2)CCO1 [AM-5308], the remaining activity at 1 µM (PKA alpha) is reported as 100% and the remaining activity at 1 µM (PKR) is reported as 90%.
